Measurements as given in PubChem BioAssay AID2753 (Vanderbilt High Throughput Screening Facility, 2010).
Calls of active or inactive are those of the source. How the calls were made is not given here.

Biological target: ATP-sensitive inward rectifier potassium channel 1 (Homo sapiens) (UniProt P48048)
Experiment: ROMK channel inhibitor potency, dose response, cell-based, thallium flux, HEK293 (AID 2753)
Details: fluorescence

Sequence of ATP-sensitive inward rectifier potassium channel 1 (Homo sapiens) (P48048 whole entry, looked up): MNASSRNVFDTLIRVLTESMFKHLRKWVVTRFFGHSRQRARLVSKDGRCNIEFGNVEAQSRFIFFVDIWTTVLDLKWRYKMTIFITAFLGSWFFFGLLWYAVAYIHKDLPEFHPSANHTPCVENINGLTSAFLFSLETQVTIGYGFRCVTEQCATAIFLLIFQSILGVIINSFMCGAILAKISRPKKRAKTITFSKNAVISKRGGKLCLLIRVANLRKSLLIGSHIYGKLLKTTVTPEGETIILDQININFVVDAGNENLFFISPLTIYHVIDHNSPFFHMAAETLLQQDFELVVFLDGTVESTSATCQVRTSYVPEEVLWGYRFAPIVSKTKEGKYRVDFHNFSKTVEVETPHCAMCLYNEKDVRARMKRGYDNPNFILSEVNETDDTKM

Compound | IC50
Cc1ccc2[nH]cc(C(=O)CCl)c2c1 | 4.14 µM
Cc1cnc2ncc3sccc3c2c1 | 13.5 µM
CN(CCCC(=O)Nc1ccncc1)S(=O)(=O)c1ccc(Cl)cc1 | inactive
COC(=O)N/N=C/c1ccc(-c2cc(Cl)ccc2Cl)o1 | 5.79 µM
Cc1ccc2nc(NC(=O)C(NS(=O)(=O)c3cccc4nsnc34)C(C)C)sc2c1 (stereo not given) | inactive
Cn1c(/C(C#N)=C/c2cccc(O)c2)nc2ccccc21 | inactive
Cn1nc(C(F)(F)F)c(C#N)c1N1CCN(c2ccccc2)CC1 | 15.2 µM
Cc1ccc(/C=C(\C#N)C(=O)NCCN2CCOCC2)cc1 | inactive
COc1ccc(C2(O)CCN(CCCCOc3ccccc3)CC2)cc1 | 10.8 µM
N#C/C(=C\C1=C(N2CCOCC2)C(=C\c2ccccc2)/CC1)C(=O)Nc1ccccc1F | 14.5 µM
COCc1cc(C)nc(SCC[N+](C)(C)CC(=O)Nc2cccc(C(F)(F)F)c2)c1C#N | 9.27 µM
N#Cc1ccc(/C=C/C(=O)c2cccnc2)cc1 | 4.51 µM
N#C/C(=C\c1cccc([N+](=O)[O-])c1)c1nnc2n1CCCCC2 | inactive
Cc1nn(CCCC(=O)N2CCN(c3ccc(F)cc3)CC2)c(C)c1[N+](=O)[O-] | inactive
CC(C)(C)c1ccc(N2C(=N)SCC2=O)cc1 | 3.24 µM
CCOC(=O)c1c(NC(=O)C[n+]2ccc(Cc3ccccc3)cc2)sc(C)c1C | inactive
Cc1ccccc1N1C(=S)NC2c3ccccc3OC1(C)C2C(=O)N(C)C (stereo not given) | 0.0115 µM
CCOCCCNC(=O)/C(C#N)=C/c1ccc(C(=O)OC)cc1 | inactive
CNC(=O)c1nnsc1S(=O)c1ccc(Cl)cc1 (stereo not given) | 0.647 µM
O=C1c2cccc3c([N+](=O)[O-])ccc(c23)C(=O)N1CC1CCCO1 (stereo not given) | inactive
COc1ccccc1-n1c(SCC(=O)N2CCc3ccccc32)nc2c(c1=O)SCC2 | 6.43 µM
COc1cc(/C=C(\C#N)C(N)=O)ccc1OS(=O)(=O)c1ccc(C)cc1 | 31 µM
COc1cc2c(cc1OC)C(/C=C/c1ccco1)=NCC2 | 4.07 µM
COCCNC(=O)/C(C#N)=C/c1c(F)cccc1Cl | 9.2 µM
COC(=O)/C=C1\SC(=NC(=O)c2cccc(Cl)c2)NC1=O | inactive
CC(C)C(c1nnnn1Cc1ccccc1)N1CCN(Cc2ccc3c(c2)OCO3)CC1 (stereo not given) | 5.83 µM
O=C(NC1CCCCCC1)c1cc(S(=O)(=O)N2CCCCC2)ccc1N1CCOCC1 | 5.44 µM

Compound | IC50
COc1ccc(CNCC(O)COc2ccc(C)cc2[N+](=O)[O-])cc1 (stereo not given) | inactive
CCOC(=O)N1CCN(S(=O)(=O)c2ccc3c(c2)SCC(=O)N3)CC1 | inactive
CCCC(C(=O)NCc1ccco1)N(C(=O)CNS(=O)(=O)c1ccccc1)c1ccccc1OC (stereo not given) | inactive
CCOC(=O)CS(=O)(=O)c1nc(-c2ccccc2)cc(C(F)(F)F)n1 | 12.4 µM
Cc1ccc(-n2c3nc(=O)[nH]c(=O)c-3cc3cc([N+](=O)[O-])ccc32)cc1 | 8.66 µM
CCC(CC)C(=O)Nc1c2cnn(-c3ccccc3)c2nc(=O)n1-c1ccccc1 | 14 µM
Cc1cc(=O)oc2cc(NC(=S)NCc3ccccn3)ccc12 | 7.2 µM
O=C(N/N=C/c1cn(-c2cccs2)nc1-c1ccccc1)c1ccc(O)cc1 | 4.99 µM
COC(=O)C1=C(C)N(C)C(C)=C(C(=O)OC)C1c1ccccc1C | 39.9 µM
COc1cc(/C=C2\C(=N)N3N=CSC3=NC2=O)cc(Br)c1OC(=O)c1ccco1 | 4.53 µM
O=C(NCc1ccccc1)N1CCC(n2cnc3cc(F)ccc32)CC1 | inactive
COC(=O)c1cc([N+](=O)[O-])c(-n2cncn2)c([N+](=O)[O-])c1 | 5.07 µM
Cc1cc(N2CCOCC2)ccc1/C=C\[N+](=O)[O-] | 3.4 µM
CSC1=C(C#N)C(=O)NC(c2ccccc2O)S1 (stereo not given) | 7.63 µM
COC(=O)C(=Cc1ccccc1[N+](=O)[O-])C(=O)OC | 8.19 µM
O=C1CC(N2CCN(Cc3ccc4c(c3)OCO4)CC2)C(=O)N1c1cccc2ccccc12 (stereo not given) | inactive
CC1CN(c2ccc([N+](=O)[O-])c(NCCOc3ccccc3)c2)CCN1 (stereo not given) | inactive
COCCCNc1ccc([N+](=O)[O-])cc1C(=O)Nc1cccc(C)n1 | 13.7 µM
C[n+]1c2n(c3ccccc31)N=C(c1cc(C(C)(C)C)c(O)c(C(C)(C)C)c1)CS2 | 73.3 µM
CCCCC1(CCCC)C(=O)NC(=Nc2cccc(C)c2)NC1=O | 3.01 µM
CC(/C=C1\SC(=S)N(CCCC(=O)Nc2ccc(C(=O)O)cc2)C1=O)=C\c1ccccc1 | 120 µM
N#Cc1nc(N2CCCC2)nc(N2CCCC2)n1 | 41.7 µM
O=C(CN1CCCC1)Nc1c2c(nc3ccccc13)N(Cc1ccccc1)CC2 | inactive
N#C/C(=C\c1ccc(O)c(Br)c1)C(=O)NCc1ccccc1 | inactive
COc1cc(NC(C)=O)c2ncccc2c1[N+](=O)[O-] | 21.1 µM
COc1ccccc1/C=C(\C#N)C(=O)Nc1ccc(S(N)(=O)=O)cc1 | inactive
Cc1ccccc1-n1sc2cc(F)ccc2c1=O | inactive

Compound | IC50
Cc1ccc(Oc2c(C(N)=O)cc([N+](=O)[O-])cc2[N+](=O)[O-])cc1 | 51 µM
N#C/C(=C\C1CC=CCC1)c1nc2ccccc2[nH]1 (stereo not given) | inactive
CCCN1C(=O)/C(=C/c2ccncc2)SC1=S | 7.7 µM
COc1cc(/C=C(/C(=O)c2cccs2)c2nc3ccccc3[nH]2)ccc1O | inactive
N#C/C(=C\c1ccc(Cl)c([N+](=O)[O-])c1)c1ccccn1 | 3.6 µM
CCOCCCNC(=O)/C(C#N)=C/c1ccccc1F | inactive
Cc1ccc(C(C)C)c(OCC(=O)NN=C(CCl)CCl)c1 | inactive
Cc1ccc(C)n1-c1ccc(-n2cnnn2)cc1 | 10.4 µM
O=[N+]([O-])c1ccc(N2CCCNCC2)c2ncccc12 | 10.7 µM
O=[N+]([O-])c1ccc(S(=O)(=O)N2CCN(Cc3c[nH]c4ccccc34)CC2)cc1 | inactive
CCOC(=O)c1c(C)n(C)c2ccc(OC)c(NC(=O)CN3CCCCC3)c12 | 7.88 µM
CC(CCc1ccccc1)NC(=O)CN1CCN(c2ccccc2)CC1 (stereo not given) | inactive
CC1CCN(C(=O)CSCC(=O)Nc2nc(-c3cccs3)cs2)CC1 | inactive
CCN1C(=O)c2cccc3c(S(=O)(=O)Nc4ccccc4OC)ccc1c23 | inactive
N#CC(C#N)=C1C=CC=CN1/C(=C\c1ccccc1Cl)C(=O)c1ccccc1 | 6.03 µM
Cc1cc2c(cc1S(=O)(=O)N(C)c1ccccc1)NC(=O)CO2 | 0.909 µM
O=C1c2[nH]nc(-c3ccccc3O)c2C(c2cccc(Cl)c2)N1CC1CCCO1 (stereo not given) | inactive
COCCNC(=O)/C(C#N)=C/c1cccc(/C=C(\C#N)C(=O)NCCOC)c1 | 2.87 µM
O=C(Nc1ccc2oc(=O)ccc2c1)c1cc([N+](=O)[O-])ccc1N1CCOCC1 | 3.41 µM
COC(=O)[C@@]1(Cc2ccccc2)[C@@H]2C(=CC(=O)[C@H]2CC(=O)C(=O)N(C)C)CN1C(=O)c1ccccc1 | 81 µM
COc1ccc(-n2nc(C#N)c(Cl)cc2=O)cc1 | 10.3 µM
O=C(/C=C\c1cccs1)c1c(O)ccc2ccc(=O)oc12 | 4.79 µM
CS(=O)(=O)n1nc(OC(=O)c2cc(Br)ccc2Cl)cc1N | inactive
Cn1c(=O)c([N+](=O)[O-])c(Cl)c2ccccc21 | 5.56 µM
N#C/C(=C\c1cccc([N+](=O)[O-])c1)C(=O)NCC1CCCO1 (stereo not given) | inactive
COc1cccc(/C=C2\SC(=S)N(N3C(=O)CCCC3=O)C2=O)c1 | inactive
